Experimental data from US7939499B2, “Method for increasing cardiac mass and performance” (Trustees of Dartmouth College, priority 2005, dated 2011).
Marks after values point to notes of the source that are not given here. Where no end group is shown, it is not given here.

Key:
Assay type in all cases: in vivo, mouse
[1] = tested on: transgenic mice with myocardial-specific expression of PR39; experiment: Endothelial cell mass (I131-labeled anti-PECAM antibody perfusion) and direct capillary counting in PR39 transgenic mice
Text: (§1) To monitor PR39 expression, β-galactosidase was expressed bicistronically.
Three weeks after induction of PR39 expression in 6-8 week-old mice, a significant increase in the endothelial cell mass was observed as determined by in vivo perfusion with an I^131-labeled anti-PECAM antibody and direct capillary counting (Table 1).
(§2) Full-length porcine PR39 cDNA was inserted into a tetracycline-responsive vector system and a tetracycline transactivator was placed under transcriptional control of an α-myosin heavy chain promoter. The resulting tetracycline-responsive system was microinjected into fertilized mouse eggs. PCR analysis of genomic DNA from mouse tail tissue confirmed integration into the mouse genome. Independent transgenic lines were established and used for the analysis disclosed herein.

[2] = tested on: transgenic mice with myocardial-specific expression of PR39; experiment: Heart size, myocardial mass and myocyte cross-sectional area after induction of PR39 expression
Text: as §1
Six weeks after induction of PR39 expression, a large increase in the heart size was observed that was attributable to increased ventricular wall thickness and a mild increase in the left ventricle chamber size.
as §2

[3] = tested on: transgenic mice with myocardial-specific expression of PR39; experiment: Echocardiographic and pressure-volume loop analysis of myocardial function
Procedure: as §1
To determine whether this endothelial-driven myocardial hypertrophy affected cardiac performance, echocardiographic and pressure-volume loop analysis of myocardial function was performed following induction of PR39 expression. In agreement with morphologic observations, heart expressing PR39 had somewhat larger left ventricular end-diastolic volume and end-diastolic diameter (Table 2). There was a significant enhancement of systolic performance as indicated by decreased left ventricle end-systolic volume and increases in the […], +dP/dT, maximal-generated left ventricle pressure and cardiac output (Table 2). Unexpectedly, there was also a significant improvement in diastolic function as indicated by reduced tau and −dP/dt (Table 2).
To evaluate the robustness of the observed increase in myocardial size and functional improvement, PR39 expression was shut off six weeks after its induction and the mice were re-examined three weeks later. Both the increase in the myocardial mass and improvements in the systolic and diastolic function were maintained at that time.
as §2

[4] = tested on: ANF, βMHC and skeletal α-actin gene expression; experiment: Expression of myocyte hypertrophy markers; details: 6 weeks after PR39 expression induction (not at 3 weeks)
Text: (§3) To gain further insight into the nature of the hypertrophy process, expression of myocyte hypertrophy markers was examined. […] These findings are consistent with an increase in endothelial cell mass, […] an increase in cardiac size, largely driven by myocyte hypertrophy accompanied by an induction of a typical hypertrophic response.

[5] = tested on: endothelial cells and cardiac myocytes; experiment: Immunocytochemical staining with anti-Ki67 antibody (proliferation); details: after induction of PR39 expression
Text: as §3

[6] = six weeks after induction of PR39 expression
[7] = six weeks following induction of PR39 expression
[8] = six weeks induction of PR39 expression followed by 3 weeks repression

With “PR39: Angiogenic proline/arginine-rich peptide; full-length porcine PR39 cDNA expressed myocardial-specifically in tetracycline-regulated transgenic mice (mature peptide SEQ ID NO:3) (RRRPRPPYLPRPRPPPFFPPRLPPRIPPGFPPRFPPRFP-NH2; listed as Sus scrofa)” the “Capillary density per gram of myocardial tissue” value [1, 6] was “returned to values seen in control mice”, the “Capillary Density (Capillary/50 μm^2)” value ([1]; three weeks after induction of PR39 expression in 6-8 week-old mice) was 5.90 ± 0.12 Capillary/50 μm^2 and the “Anti-PECAM (μg antibody/gram tissue)” value ([1]; three weeks after induction of PR39 expression in 6-8 week-old mice, endothelial cell mass) was 0.52 ± 0.07 μg antibody/gram tissue. The “Increase in myocardial mass” value ([2]; cardiac-specific overexpression of PR39) was 50%, the Heart size [2, 6] was 0.15±0.01 gram and the “Myocyte area increase (cross-sectional area of enzymatically dispersed cardiac myocytes)” value [2, 6] was 30%. For the same substance, the Heart enlargement ([2]; six weeks after induction of PR39 expression, vs non-transgenic mice) was 35%, the “Heart size after repression of PR39 expression” value ([2]; six weeks induction, then 3 weeks repression of PR39 expression) was “remained unchanged” and the “Increase in myocardial mass and improvements in systolic and diastolic function after shut-off” value ([3]; PR39 expression shut off six weeks after induction, re-examined three weeks later) was “maintained”. The “Left Ventricle Mass” value [3, 7] was 74 ± 1.1^a mg, the “Left Ventricle internal dimension systolic” value [3, 7] was 2.28 ± 0.20^c mm and the Cardiac output [3, 8] was 9046 ± 239^a μL/minute. For the same substance, the Ejection fraction [3, 8] was 85.06 ± 0.76^a %, the End diastolic pressure [3, 8] was 7.17 ± 0.17^a mmHg and the End diastolic volume [3, 8] was 18.78 ± 0.31^a μL. For the same substance, the End systolic pressure [3, 8] was 70.49 ± 0.99^b mmHg, the End systolic volume [3, 8] was 3.26 ± 0.15^a μL and the “Maximum dP/dt” value [3, 8] was 8809 ± 167^a mmHg/second. For the same substance, the Maximum pressure [3, 8] was 92.26 ± 0.54^a mmHg, the Maximum volume [3, 8] was 20.15 ± 0.29^a μL and the “Minimum dP/dt” value [3, 8] was −7503 ± 123^a mmHg/second. For the same substance, the Minimum pressure [3, 8] was 3.79 ± 0.15^a mmHg, the Minimum volume [3, 8] was 2.86 ± 0.13^a μL and the Stroke volume [3, 8] was 17.29 ± 0.32^a μL. For the same substance, the Tau-w [3, 8] was 6.0 ± 0.1^a msec, the “ANF, βMHC and skeletal α-actin gene expression” value [4] was “marked increase” and the “Proliferation of endothelial cells between myocyte bundles (anti-Ki67)” value [5] was “increased proliferation”. For the same substance, the “Proliferation of cardiac myocytes (anti-Ki67)” value ([5]; multiple sections) was “no proliferation”.
